Laboratory results reported in paper PMC7766161, “PARP Theranostic Auger Emitters Are Cytotoxic in BRCA Mutant Ovarian Cancer and Viable Tumors from Ovarian Cancer Patients Enable Ex-Vivo Screening of Tumor Response” (Molecules, 2020).

Target: T1, PARP-1 (Homo sapiens, UniProt P09874)
T1 construct: gene PARP1
Experiment: saturation radioligand binding in OVCAR8 wt cells (nonspecific binding with […] veliparib)
Format: cell-based

T1 sequence (P09874 2-1014): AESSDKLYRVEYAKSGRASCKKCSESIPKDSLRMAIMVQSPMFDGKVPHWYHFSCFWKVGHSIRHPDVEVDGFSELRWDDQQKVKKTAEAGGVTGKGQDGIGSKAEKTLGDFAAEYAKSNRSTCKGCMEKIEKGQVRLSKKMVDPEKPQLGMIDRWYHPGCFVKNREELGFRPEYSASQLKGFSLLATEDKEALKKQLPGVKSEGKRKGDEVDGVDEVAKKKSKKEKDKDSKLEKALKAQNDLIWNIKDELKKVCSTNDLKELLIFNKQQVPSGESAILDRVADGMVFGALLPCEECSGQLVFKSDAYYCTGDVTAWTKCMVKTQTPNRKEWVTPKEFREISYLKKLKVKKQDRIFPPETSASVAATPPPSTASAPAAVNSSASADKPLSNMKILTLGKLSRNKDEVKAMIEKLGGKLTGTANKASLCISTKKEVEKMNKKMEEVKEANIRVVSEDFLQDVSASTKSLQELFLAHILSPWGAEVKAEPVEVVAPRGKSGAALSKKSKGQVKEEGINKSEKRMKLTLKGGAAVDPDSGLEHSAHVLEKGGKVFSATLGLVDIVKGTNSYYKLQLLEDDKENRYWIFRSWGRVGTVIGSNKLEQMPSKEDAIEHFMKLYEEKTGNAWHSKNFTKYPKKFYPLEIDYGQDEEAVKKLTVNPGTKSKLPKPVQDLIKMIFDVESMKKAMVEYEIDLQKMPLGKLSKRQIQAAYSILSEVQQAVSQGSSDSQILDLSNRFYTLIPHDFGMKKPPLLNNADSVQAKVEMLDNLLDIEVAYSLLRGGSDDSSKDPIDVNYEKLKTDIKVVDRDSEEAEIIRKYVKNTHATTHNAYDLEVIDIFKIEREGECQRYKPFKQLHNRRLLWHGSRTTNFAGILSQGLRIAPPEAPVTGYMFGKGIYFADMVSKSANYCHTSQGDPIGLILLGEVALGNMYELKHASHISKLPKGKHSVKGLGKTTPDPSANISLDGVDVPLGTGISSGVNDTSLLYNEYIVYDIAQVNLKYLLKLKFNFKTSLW

Kd: 7.7 nM
Substance: [125I]KX1
